Measured values taken from US20080249075A1, “C11 Modified Retrosteroids as Progesterone Receptor Modulator Compounds” (Solvay Pharmaceuticals GmbH, priority 2007, published 2008).

Tested on: T47D human breast carcinoma cells
Assay: cells
Format: cell-based
Settings: for activation at 0.1 µM / inhibition at 0.1 µM / IC50 / EC50: Homo sapiens, T47D; for activation at 0.1 µM: 48 h, read-out: PS [100 nM] (% stimulation); for inhibition at 0.1 µM: read-out: PI [100 nM] (% inhibition); for IC50: read-out: pIC50 (converted); for EC50: read-out: pEC50 (converted); for PS [100 nM] (% stimulation): agonistic mode, alkaline phosphatase induction (100% = 1 nM Dydrogesterone); for PS [100 nM] (% stimulation) / PI [100 nM] (% inhibition): compound 100 nM; for PI [100 nM] (% inhibition): antagonistic mode, inhibition of alkaline phosphatase induction by 1 nM Dydrogesterone; for pIC50: antagonistic potency against 1 nM Dydrogesterone
Method: The progesterone-dependent modulation of alkaline phosphatase expression was examined using T47D human breast carcinoma cells [Keydar et al., 1979]. The assay was performed as previously described by Di Lorenzo et al. (1991) with the modification of using Dydrogesterone as comparative progestin to determine the antagonistic and agonistic activity.
The cell line was purchased from CLS Cell Lines Service (Hildastrasse 21, D-69214 Eppelheim, Germany). In brief, the cells were plated in 96-well plates at 40,000 cells/well using the following growth medium: RPMI 1640 with: 10% FBS, 1 mM Sodium Pyruvat MEM, 10 mM Hepes, 0.01 mg/ml Bovine insulin, and 25 μg/ml Gentamycin. After 24 h of cultivation, the growth medium was replaced with medium containing 2% fetal bovine serum and the test compounds were added to each well to achieve the appropriate compound concentration: For determination of agonistic activity only the test compounds were added; for measurement of antagonistic activity the test compounds and additionally Dydrogesterone as standard progesterone agonist was added to a final concentration of 1 nM. After 48 h of cultivation, the medium was removed and the cells were washed with 200 μl of Dulbecco's phosphate-buffered saline without calcium and magnesium (PBS(−)). Then the cells were fixed with 3.7% formaldehyde in phosphate-buffered saline for 15 min at 22° C. After washing the cells with PBS, 100 μl of a […] (pNPP) solution (pNPP Liquid Substrate System; Sigma) was added to each well and incubated for 2 h at room temperature protected from light. The reaction was stopped with 100 μl 1N NaOH and the absorbance was measured with a spectrophotometer (Victor, Perkin Elmer) at 405 nm. The results are expressed as alkaline phosphatase induction (as 100% with 1 nM Dydrogesterone) or inhibition (against alkaline phosphatase induction by 1 nM Dydrogesterone) at a certain concentration of test compound.
% stimulation=(effect compound−basal)/(effect dydro 1 nM−basal)*100% inhibition of 1 nM Dydro=100*{1-[(effect compound−basal)/(effect dydro 1 nM−basal)]}
For each compound the % inhibition (PI) and % stimulation (PS), respectively, at a compound concentration of 100 nM was determined. For selected compounds, the corresponding values were measured for several different concentrations, and subsequently were plotted against the concentration of the test compound, and used to calculate the IC50 value (for the antagonistic potency; the IC50 value is the concentration (nM), required to reduce the maximal response by 50%) and EC50 values (for the agonistic potency; the EC50 value is the effective concentration (nM) that produced 50% of the maximum response), respectively.

## CC(=O)[C@H]1CC[C@H]2[C@@H]3C=CC4=CC(=O)CC[C@@]4(C)[C@@H]3[C@@H](OC(=O)NC(C)C)C[C@]12C [Compound No. 1, Dydrogesterone-11β-yl isopropylcarbamate]
  activation at 0.1 µM: -3%
  inhibition at 0.1 µM: 46%
  IC50: 158 nM

## COc1ccc(NC(=O)O[C@H]2C[C@]3(C)[C@@H](C(C)=O)CC[C@H]3[C@@H]3C=CC4=CC(=O)CC[C@@]4(C)[C@@H]32)cc1 [Compound No. 11, (4-Methoxy-phenyl)-carbamic acid dydrogesterone-11β-yl ester]
  activation at 0.1 µM: 0%
  inhibition at 0.1 µM: 39%

## CCO[C@]1(C(C)=O)CC[C@H]2[C@@H]3C=CC4=CC(=O)CC[C@@]4(C)[C@@H]3[C@@H](OC(=O)Nc3cccc(OC)c3)C[C@@]21C [Compound No. 12, (3-Methoxy-phenyl)-carbamic acid 17-ethoxy-dydrogesterone-11β-yl ester]
  activation at 0.1 µM: 23%
  inhibition at 0.1 µM: 72%
  IC50: 6.31 nM

## CC(=O)[C@H]1CC[C@H]2[C@@H]3C=CC4=CC(=O)CC[C@@]4(C)[C@@H]3[C@@H](OC(=O)Nc3cccc(C(N)=O)c3)C[C@]12C [Compound No. 14, (3-Carbamoyl-phenyl)-carbamic acid dydrogesterone-11β-yl ester]
  activation at 0.1 µM: -1%
  inhibition at 0.1 µM: 38%
  IC50: 50.1 nM

## COc1cccc(NC(=O)O[C@H]2C[C@]3(C)[C@@H](C(C)=O)CC[C@H]3[C@@H]3C=CC4=CC(=O)CC[C@@]4(C)[C@@H]32)c1 [Compound No. 15, (3-Methoxy-phenyl)-carbamic acid dydrogesterone-11β-yl ester]
  activation at 0.1 µM: -3%
  inhibition at 0.1 µM: 43%
  IC50: 126 nM

## COc1ccc(C(=O)O[C@H]2C[C@]3(C)[C@@H](C(C)=O)CC[C@H]3[C@@H]3C=CC4=CC(=O)CC[C@@]4(C)[C@@H]32)cc1 [Compound No. 22, 4-Methoxy-benzoic acid dydrogesterone-11β-yl ester]
  activation at 0.1 µM: 29%
  inhibition at 0.1 µM: 55%
  EC50: 12.6 nM
  IC50: 20 nM

## CCO[C@]1(C(C)=O)CC[C@H]2[C@@H]3C=CC4=CC(=O)CC[C@@]4(C)[C@@H]3[C@@H](OC(=O)c3ccccc3)C[C@@]21C [Compound No. 23, Benzoic acid 17-ethoxy-dydrogesterone-11β-yl ester]
  activation at 0.1 µM: 16%
  inhibition at 0.1 µM: 69%
  IC50: 15.8 nM

## CCNC(=O)O/N=C/c1cccc(NC(=O)O[C@H]2C[C@]3(C)[C@@H](C(C)=O)CC[C@H]3[C@@H]3C=CC4=CC(=O)CC[C@@]4(C)[C@@H]32)c1 [Compound No. 33, [3-(N-Ethylcarbamoyl-oximino-formyl)-phenyl]-carbamic acid dydrogesterone-11β-yl ester]
  activation at 0.1 µM: 56%
  inhibition at 0.1 µM: -29%
  EC50: 200 nM

## CC(=O)[C@H]1CC[C@H]2[C@@H]3C=CC4=CC(=O)CC[C@]4(C)[C@H]3C(OC(=O)Nc3ccc4ncccc4c3)C[C@]12C (some centres unmarked) [compound 69, Quinolin-6-yl-carbamic aciddydrogesterone-11-yl ester]
T47D cells
  PS [100 nM] (% stimulation): 4.0%
  PI [100 nM] (% inhibition): 41.0%
  pIC50: 7.2

## CC(=O)[C@H]1CC[C@H]2[C@@H]3C=CC4=CC(=O)CC[C@@]4(C)[C@@H]3C(OC(=O)Nc3ccc4c(c3)OCCO4)C[C@]12C (some centres unmarked) [compound 70, (2,3-Dihydro-benzo[1,4]dioxin-6-yl)-carbamic aciddydrogesterone-11-yl ester]
T47D cells
  PS [100 nM] (% stimulation): 1.0%
  PI [100 nM] (% inhibition): 44.0%
  pIC50: 6.9

## CC(=O)[C@H]1CC[C@H]2[C@@H]3C=CC4=CC(=O)CC[C@@]4(C)[C@@H]3C(OC(=O)Nc3cccc(OC(F)(F)F)c3)C[C@]12C (some centres unmarked) [compound 74, (3-Trifluoromethoxy-phenyl)-carbamic acid dydrogesterone-11-yl ester]
T47D cells
  PS [100 nM] (% stimulation): 89.0%
  PI [100 nM] (% inhibition): −23.0%
Agonistic potency, T47D cells
  pEC50: 6.3

## CC(=O)[C@H]1CC[C@H]2[C@@H]3C=CC4=CC(=O)CC[C@@]4(C)[C@@H]3C(OC(=O)Nc3ccc(OC(F)F)cc3)C[C@]12C (some centres unmarked) [compound 75, (4-Difluoromethoxy-phenyl)-carbamic acid dydrogesterone-11-yl ester]
T47D cells
  PS [100 nM] (% stimulation): 0.0%
  PI [100 nM] (% inhibition): 59.0%
  pIC50: 6.9

## CC(=O)[C@H]1CC[C@H]2[C@@H]3C=CC4=CC(=O)CC[C@@]4(C)[C@@H]3C(OC(=O)Nc3ccc(C)c(Br)c3)C[C@]12C (some centres unmarked) [compound 76, (3-Bromo-4-methyl-phenyl)-carbamic acid dydrogesterone-11-yl ester]
T47D cells
  PS [100 nM] (% stimulation): 4.0%
  PI [100 nM] (% inhibition): 67.0%
  pIC50: 7.3

## CC(=O)[C@H]1CC[C@H]2[C@@H]3C=CC4=CC(=O)CC[C@@]4(C)[C@@H]3C(OC(=O)Nc3ccc4cc[nH]c4c3)C[C@]12C (some centres unmarked) [compound 88, (1H-Indol-6-yl)-carbamic aciddydrogesterone-11-yl ester]
T47D cells
  PS [100 nM] (% stimulation): 0.0%
  PI [100 nM] (% inhibition): 48.0%

## CSc1ccc(NC(=O)OC2C[C@]3(C)[C@@H](C(C)=O)CC[C@H]3[C@@H]3C=CC4=CC(=O)CC[C@@]4(C)[C@H]23)cc1 (some centres unmarked) [compound 94, (4-Methylsulfanyl-phenyl)-carbamic acid dydrogesterone-11-yl ester]
T47D cells
  PS [100 nM] (% stimulation): 1.0%
  PI [100 nM] (% inhibition): 61.0%
  pIC50: 7.0

## CC(=O)Nc1cccc(NC(=O)OC2C[C@]3(C)[C@@H](C(C)=O)CC[C@H]3[C@@H]3C=CC4=CC(=O)CC[C@@]4(C)[C@H]23)c1 (some centres unmarked) [compound 95, (3-Acetylamino-phenyl)-carbamicacid dydrogesterone-11-yl ester]
T47D cells
  PS [100 nM] (% stimulation): 1.0%
  PI [100 nM] (% inhibition): 50.0%
  pIC50: 6.8

## CC(=O)[C@H]1CC[C@H]2[C@@H]3C=CC4=CC(=O)CC[C@@]4(C)[C@@H]3C(OC(=O)Nc3ccc4c(c3)S(=O)(=O)C=C4)C[C@]12C (some centres unmarked) [compound 98, (1,1-Dioxo-1H-1lambda*6*-benzo[b]thiophen-6-yl)-carbamicacid dydrogesterone-11-yl ester]
T47D cells
  PS [100 nM] (% stimulation): 1.0%
  PI [100 nM] (% inhibition): 61.0%
  pIC50: 7.0

## CC(=O)[C@H]1CC[C@H]2[C@@H]3C=CC4=CC(=O)CC[C@@]4(C)[C@@H]3C(OC(=O)Nc3cccc(N4CCCC4=O)c3)C[C@]12C (some centres unmarked) [compound 100, [3-(2-Oxo-pyrrolidin-1-yl)-phenyl]-carbamic aciddydrogesterone-11-yl ester]
T47D cells
  PS [100 nM] (% stimulation): 1.0%
  PI [100 nM] (% inhibition): 45.0%
  pIC50: 6.6

## CC(=O)[C@H]1CC[C@H]2[C@@H]3C=CC4=CC(=O)CC[C@@]4(C)[C@@H]3C(OC(=O)Nc3cccc(-n4cccc4)c3)C[C@]12C (some centres unmarked) [compound 103, (3-Pyrrol-1-yl-phenyl)-carbamicacid dydrogesterone-11-yl ester]
T47D cells
  PS [100 nM] (% stimulation): 21.0%
  PI [100 nM] (% inhibition): 52.0%
  pIC50: 7.2

## COc1cc(NC(=O)OC2C[C@]3(C)[C@@H](C(C)=O)CC[C@H]3[C@@H]3C=CC4=CC(=O)CC[C@@]4(C)[C@H]23)cc(-n2cnnn2)c1 (some centres unmarked) [compound 104, (3-Methoxy-5-tetrazol-1-yl-phenyl)-carbamic aciddydrogesterone-11-yl ester]
T47D cells
  PS [100 nM] (% stimulation): 1.0%
  PI [100 nM] (% inhibition): 45.0%
  pIC50: 6.9
